Where two headings read alike, the source gives them in different places.

For assay [1], the system named is PTH-induced bone resorption. The settings on record: cited from earlier work.
The next assay concerns the target c-Src (sarcoma) kinase (Homo sapiens, UniProt P12931). Particulars: cited from earlier work.
In assay [2] the test system is MCF7 (breast cancer) cell line. In words: MTT cell proliferation assay, MCF7. Particulars: Homo sapiens, 72 h, 3 days, read-out: IC50, growth inhibition. The format is cell-based. On the procedure: (§1) Cancer assays were performed using MTT cell proliferation assays with three different immortalised cell lines: a human leukaemia cell line (HL-60), an ovarian cancer cell line (1A9) and a breast cancer cell line (MCF7).
(§2) HL-60, 1A9 and MCF cells were cultured at 37° C. in a 5% CO2 in air atmosphere in RPMI-1640 medium supplemented with 10% fetal calf serum, 100 units/mL penicillin, and 100 units/mL streptomycin (with 0.1% insulin added to the medium for 1A9 and MCF7 cell cultures). An MTT cell proliferation assay was used that involved the reduction of 3-(4,5-dimethylthiazol-2-yl)-2,5-diphenoyltetrazolium bromide (MTT) by viable cells as previously described.^14 Cells were treated with compounds of the invention in 96-well plates (duplicate wells) for 2 days (for HL-60) or 3 days (for 1A9 or MCF7), then incubated with 5 mg/mL MTT in phosphate-buffered saline for 2 h. The blue crystals that formed were solubilised in 10% sodium dodecyl sulfate, 45% dimethylformamide and the absorbance of the solutions measured at 570 nm in a multiwell plate reader (EnSpire™ 2300 Multiplate Reader from Perkin Elmer, Waltham, USA. The half-maximal inhibitory concentration (IC50) was calculated from a concentration-response curve using Sigma Plot software v8 (Systat Software Inc. Point Richmond, Calif.).

Assay [3] has as its system HL-60 (human leukaemia) cell line. Description: MTT cell proliferation assay, HL-60. The format is cell-based. Particulars: HL-60, MTT assay, 2 days, read-out: IC50, growth inhibition. On the procedure:
as §1, §2
On the technique in general: Formazan colour is commonly taken as a measure of viable cells.

For a further assay, the target named is MAPK14 (p38 alpha) (Homo sapiens, UniProt Q16539). In words: SelectScreen kinase profiling, Z'-LYTE protocol. Format: biochemical. On the procedure:
(§3) Kinase inhibition assays were conducted by Life Technologies using their SelectScreen® Whole Panel ACCESS Biochemical Kinase Profiling Service. The Z'-LYTE® Screening Protocol was used to obtain the results for the following kinases: AMPK A2/B1/G1, BMX, BTK, MAPK14 (p38 alpha), PLK1, TXK. The LanthaScreen Protocol was used to obtain the result for the following kinase: NUAK2.
(§4) Compound 10 was assessed for kinase inhibition by Life Technologies using the SelectScreen® Whole Panel ACCESS Biochemical Kinase Profiling Service. The Z'-LYTE® Screening Protocol was used to obtain the results for the following kinases: AMPK A2/B1/G1, BMX, BTK, MAPK14 (p38 alpha), PLK1, TXK. The LanthaScreen Protocol was used to obtain the result for the following kinase: NUAK2.

A further assay addresses PLK1 (Homo sapiens, UniProt P53350). In words: SelectScreen kinase profiling, Z'-LYTE protocol. Format: biochemical. On the procedure: as §3, §4
A further assay deals with T1, BMX (Homo sapiens, UniProt P51813).
T1 sequence (P51813 1-675): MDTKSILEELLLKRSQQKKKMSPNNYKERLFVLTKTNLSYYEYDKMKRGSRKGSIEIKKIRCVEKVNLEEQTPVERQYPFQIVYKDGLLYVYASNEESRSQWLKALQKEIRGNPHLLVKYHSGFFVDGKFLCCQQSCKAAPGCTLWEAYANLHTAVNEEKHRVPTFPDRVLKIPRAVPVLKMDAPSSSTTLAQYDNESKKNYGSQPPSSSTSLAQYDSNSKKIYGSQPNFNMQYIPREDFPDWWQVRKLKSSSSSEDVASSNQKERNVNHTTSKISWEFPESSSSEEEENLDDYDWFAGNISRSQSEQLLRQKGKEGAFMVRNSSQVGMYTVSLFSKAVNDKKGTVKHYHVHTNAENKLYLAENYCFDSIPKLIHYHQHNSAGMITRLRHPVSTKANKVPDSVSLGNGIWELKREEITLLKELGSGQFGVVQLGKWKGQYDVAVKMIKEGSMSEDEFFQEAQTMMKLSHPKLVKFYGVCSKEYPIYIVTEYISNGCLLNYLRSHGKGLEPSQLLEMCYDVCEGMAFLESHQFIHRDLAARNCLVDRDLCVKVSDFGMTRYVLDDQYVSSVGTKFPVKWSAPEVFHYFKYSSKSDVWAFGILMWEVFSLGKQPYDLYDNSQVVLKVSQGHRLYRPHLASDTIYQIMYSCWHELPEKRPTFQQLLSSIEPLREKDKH
In words: SelectScreen kinase profiling, Z'-LYTE protocol. The format is biochemical. The procedure: as §3, §4

Assay [4] addresses BTK (Bruton's tyrosine kinase) (Homo sapiens, UniProt Q06187). Description: SelectScreen kinase profiling, Z'-LYTE protocol. Format: biochemical. The procedure: as §3, §4
The next assay deals with AMPK A2/B1/G1 (Homo sapiens, UniProt P54646). Description: SelectScreen kinase profiling, Z'-LYTE protocol. The format is biochemical. On the procedure:
as §3, §4

In a further assay the target is T2, TXK (Homo sapiens, UniProt P42681).
T2 sequence (P42681 1-527): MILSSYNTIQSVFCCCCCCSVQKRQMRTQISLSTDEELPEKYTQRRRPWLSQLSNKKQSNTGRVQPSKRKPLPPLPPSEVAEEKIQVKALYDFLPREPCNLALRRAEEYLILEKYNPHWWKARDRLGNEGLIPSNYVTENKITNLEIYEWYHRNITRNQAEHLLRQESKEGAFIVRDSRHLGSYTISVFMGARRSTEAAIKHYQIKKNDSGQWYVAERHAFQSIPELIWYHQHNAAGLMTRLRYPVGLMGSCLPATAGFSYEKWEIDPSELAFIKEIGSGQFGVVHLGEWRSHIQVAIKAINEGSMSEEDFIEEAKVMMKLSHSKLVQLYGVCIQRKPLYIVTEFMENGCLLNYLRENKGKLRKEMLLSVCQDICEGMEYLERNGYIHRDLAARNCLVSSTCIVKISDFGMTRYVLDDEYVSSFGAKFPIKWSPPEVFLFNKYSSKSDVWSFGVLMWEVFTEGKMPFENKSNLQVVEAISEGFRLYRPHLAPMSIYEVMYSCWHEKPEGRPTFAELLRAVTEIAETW
Description: SelectScreen kinase profiling, Z'-LYTE protocol. Format: biochemical. On the procedure: as §3, §4

The next assay addresses T3, NUAK2 (Homo sapiens, UniProt Q9H093).
T3 sequence (Q9H093 1-628): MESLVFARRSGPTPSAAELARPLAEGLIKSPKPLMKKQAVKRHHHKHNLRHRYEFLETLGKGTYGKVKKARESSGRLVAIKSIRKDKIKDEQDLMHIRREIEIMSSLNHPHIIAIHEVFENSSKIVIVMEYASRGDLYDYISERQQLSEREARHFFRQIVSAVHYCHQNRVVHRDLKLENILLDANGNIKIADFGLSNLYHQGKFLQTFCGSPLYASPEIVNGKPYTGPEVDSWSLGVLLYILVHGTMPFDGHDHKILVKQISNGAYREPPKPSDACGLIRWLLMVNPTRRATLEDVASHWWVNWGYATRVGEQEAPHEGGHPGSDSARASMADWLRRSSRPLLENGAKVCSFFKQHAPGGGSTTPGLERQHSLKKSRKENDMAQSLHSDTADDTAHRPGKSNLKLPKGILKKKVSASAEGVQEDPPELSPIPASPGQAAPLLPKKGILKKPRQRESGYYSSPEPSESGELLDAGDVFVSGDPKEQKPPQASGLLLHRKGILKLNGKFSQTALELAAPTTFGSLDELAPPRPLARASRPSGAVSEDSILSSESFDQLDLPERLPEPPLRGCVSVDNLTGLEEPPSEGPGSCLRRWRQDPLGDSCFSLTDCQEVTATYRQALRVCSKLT
In words: SelectScreen kinase profiling, LanthaScreen protocol. Format: biochemical. The procedure:
as §3, §4
On the technique in general: In TR-FRET formats the signal depends on donor and acceptor labels being close together.

In assay [5] the test system is 1A9 (ovarian cancer) cell line. In words: MTT cell proliferation assay, 1A9. Format: cell-based. Particulars: 1A9, MTT assay, 3 days; read-out: IC50, growth inhibition. The procedure: as §1, §2
Setting [6] is: read-out: Inhibition (IC50 at 10 μM).
The mark [7] stands for this setting: single-point, read-out: percent inhibition.

Sequence of c-Src (sarcoma) kinase (P12931 whole entry): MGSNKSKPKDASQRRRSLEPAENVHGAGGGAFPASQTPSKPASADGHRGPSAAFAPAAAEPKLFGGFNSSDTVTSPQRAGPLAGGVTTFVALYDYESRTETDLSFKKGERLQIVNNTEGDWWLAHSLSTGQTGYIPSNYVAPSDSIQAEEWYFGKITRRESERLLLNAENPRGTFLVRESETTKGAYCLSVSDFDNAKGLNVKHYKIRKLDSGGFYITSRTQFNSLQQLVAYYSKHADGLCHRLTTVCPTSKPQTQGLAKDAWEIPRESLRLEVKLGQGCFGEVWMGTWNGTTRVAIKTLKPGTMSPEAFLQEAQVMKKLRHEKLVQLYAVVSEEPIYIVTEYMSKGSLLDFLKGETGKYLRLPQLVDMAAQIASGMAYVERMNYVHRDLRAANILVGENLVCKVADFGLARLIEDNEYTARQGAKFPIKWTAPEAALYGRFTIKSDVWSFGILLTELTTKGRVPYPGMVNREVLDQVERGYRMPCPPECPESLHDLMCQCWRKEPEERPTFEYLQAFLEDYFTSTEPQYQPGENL
Sequence of BTK (Bruton's tyrosine kinase) (Q06187 whole entry): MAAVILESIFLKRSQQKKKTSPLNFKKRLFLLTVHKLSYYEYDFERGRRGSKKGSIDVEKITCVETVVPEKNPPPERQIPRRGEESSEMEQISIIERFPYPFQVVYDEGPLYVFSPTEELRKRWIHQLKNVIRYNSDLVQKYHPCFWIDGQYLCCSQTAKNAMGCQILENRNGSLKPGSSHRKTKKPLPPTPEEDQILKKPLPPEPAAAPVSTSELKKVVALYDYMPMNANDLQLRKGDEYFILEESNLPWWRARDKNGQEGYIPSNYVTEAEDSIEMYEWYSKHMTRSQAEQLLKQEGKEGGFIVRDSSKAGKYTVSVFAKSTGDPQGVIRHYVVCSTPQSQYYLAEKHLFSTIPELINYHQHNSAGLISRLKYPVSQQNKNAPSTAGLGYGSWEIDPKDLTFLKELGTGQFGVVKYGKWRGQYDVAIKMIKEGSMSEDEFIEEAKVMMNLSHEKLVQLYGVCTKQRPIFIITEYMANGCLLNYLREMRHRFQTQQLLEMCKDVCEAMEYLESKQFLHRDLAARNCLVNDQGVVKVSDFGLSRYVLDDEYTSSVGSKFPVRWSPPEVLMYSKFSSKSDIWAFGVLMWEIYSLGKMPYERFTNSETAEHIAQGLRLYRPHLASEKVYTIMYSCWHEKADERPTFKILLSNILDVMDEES
Sequence of PLK1 (P53350 whole entry): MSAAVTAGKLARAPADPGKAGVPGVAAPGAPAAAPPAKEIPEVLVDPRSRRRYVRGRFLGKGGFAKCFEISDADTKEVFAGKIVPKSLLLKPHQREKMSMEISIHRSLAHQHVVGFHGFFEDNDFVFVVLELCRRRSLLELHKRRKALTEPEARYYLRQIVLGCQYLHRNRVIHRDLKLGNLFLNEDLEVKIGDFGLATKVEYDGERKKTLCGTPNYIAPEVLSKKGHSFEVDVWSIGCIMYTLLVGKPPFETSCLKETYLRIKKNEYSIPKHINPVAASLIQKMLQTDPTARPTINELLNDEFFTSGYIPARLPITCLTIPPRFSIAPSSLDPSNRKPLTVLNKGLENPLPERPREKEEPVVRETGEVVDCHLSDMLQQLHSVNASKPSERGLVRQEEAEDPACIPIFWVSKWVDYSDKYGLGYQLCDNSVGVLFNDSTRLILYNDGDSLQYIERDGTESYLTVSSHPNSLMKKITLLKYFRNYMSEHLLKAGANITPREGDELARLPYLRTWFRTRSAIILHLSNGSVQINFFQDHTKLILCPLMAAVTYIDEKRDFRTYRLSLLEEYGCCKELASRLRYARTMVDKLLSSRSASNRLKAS
Sequence of MAPK14 (p38 alpha) (Q16539 whole entry): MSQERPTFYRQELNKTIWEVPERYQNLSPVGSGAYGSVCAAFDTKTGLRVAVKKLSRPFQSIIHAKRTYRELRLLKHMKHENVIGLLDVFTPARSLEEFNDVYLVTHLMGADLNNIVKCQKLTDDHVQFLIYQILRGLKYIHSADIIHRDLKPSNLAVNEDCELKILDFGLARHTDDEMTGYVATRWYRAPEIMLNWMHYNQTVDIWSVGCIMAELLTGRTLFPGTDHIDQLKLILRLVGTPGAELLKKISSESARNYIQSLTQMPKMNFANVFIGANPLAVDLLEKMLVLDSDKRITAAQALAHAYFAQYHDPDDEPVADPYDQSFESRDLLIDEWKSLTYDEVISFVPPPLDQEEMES
Sequence of AMPK A2/B1/G1 (P54646 whole entry): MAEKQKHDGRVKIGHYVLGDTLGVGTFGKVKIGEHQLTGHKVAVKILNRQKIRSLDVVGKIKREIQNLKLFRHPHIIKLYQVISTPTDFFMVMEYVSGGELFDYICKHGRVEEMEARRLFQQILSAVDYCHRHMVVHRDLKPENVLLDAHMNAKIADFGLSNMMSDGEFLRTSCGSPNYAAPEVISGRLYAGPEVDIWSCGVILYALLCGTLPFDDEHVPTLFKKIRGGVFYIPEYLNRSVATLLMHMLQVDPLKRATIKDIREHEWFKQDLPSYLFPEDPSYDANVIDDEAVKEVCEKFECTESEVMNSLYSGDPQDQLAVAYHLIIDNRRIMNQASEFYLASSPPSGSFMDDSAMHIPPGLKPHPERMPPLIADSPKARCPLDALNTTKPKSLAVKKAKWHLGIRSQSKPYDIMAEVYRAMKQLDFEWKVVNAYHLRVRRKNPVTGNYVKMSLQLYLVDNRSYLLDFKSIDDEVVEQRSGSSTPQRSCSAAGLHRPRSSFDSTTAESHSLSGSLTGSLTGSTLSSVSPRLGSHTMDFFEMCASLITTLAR
Sequence of AMPK A2/B1/G1 (Q9Y478 whole entry partner): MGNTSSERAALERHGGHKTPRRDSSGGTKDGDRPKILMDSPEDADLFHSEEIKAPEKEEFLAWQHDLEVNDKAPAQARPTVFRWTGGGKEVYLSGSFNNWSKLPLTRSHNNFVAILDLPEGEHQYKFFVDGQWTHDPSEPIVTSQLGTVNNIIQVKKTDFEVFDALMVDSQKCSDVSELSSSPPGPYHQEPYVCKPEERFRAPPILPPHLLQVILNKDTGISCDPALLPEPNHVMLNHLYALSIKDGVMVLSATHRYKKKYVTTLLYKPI
Sequence of AMPK A2/B1/G1 (P54619 whole entry partner): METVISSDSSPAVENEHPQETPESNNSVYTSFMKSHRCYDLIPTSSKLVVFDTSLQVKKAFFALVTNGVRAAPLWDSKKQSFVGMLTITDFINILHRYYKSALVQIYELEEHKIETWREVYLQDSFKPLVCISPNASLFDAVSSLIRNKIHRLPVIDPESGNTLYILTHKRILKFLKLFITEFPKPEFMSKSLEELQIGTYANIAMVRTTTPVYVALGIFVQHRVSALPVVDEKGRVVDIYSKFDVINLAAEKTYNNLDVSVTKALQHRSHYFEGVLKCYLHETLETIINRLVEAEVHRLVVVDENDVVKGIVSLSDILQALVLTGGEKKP

For the compound `C/C=C/[C@H]1O[C@@H]2C(=C[C@H]1O)C(=O)O[C@H]2C` [(−)-TAN-2483A], the “inhibition of PTH-induced bone resorption” value in [1] is on record as “inhibition”. At c-Src (sarcoma) kinase, the “inhibition of c-Src (sarcoma) kinase” value is reported as “inhibition”.
Take `C/C=C/[C@H]1O[C@H]2C(=C[C@H]1O)C(=O)O[C@H]2C` [(−)-TAN-2483B]: the “inhibition of PTH-induced bone resorption” value in assay [1] is on record as “inhibition”. Also, the “inhibition of c-Src (sarcoma) kinase” value on c-Src (sarcoma) kinase is “inhibition”.
In general, IC50 refers to the concentration that inhibits the measured activity by half. Usually inhibition stands for the percentage by which the read-out fell short of the control. As for `CCOC(=O)/C=C\[C@H]1O[C@H]2C(=C[C@H]1O)C(=O)O[C@H]2C` [Compound 10, (−)-TAN-2483B Z-ethyl ester], the IC50 in assay [2] stood at 9 µM; in assay [3] (Homo sapiens, 48 h), 3.6 µM. For the same compound, the inhibition at 10 µM on MAPK14 (p38 alpha) (MAPK14 (p38 alpha), single-point, at 10 μM, read-out: percent inhibition) is 74%; on MAPK14 (p38 alpha) (MAPK14, at 10 μM, read-out: Inhibition (IC50 at 10 μM)), 74%; at PLK1 (PLK1, at 10 μM, read-out: Inhibition (IC50 at 10 μM)), 81%; at PLK1 (PLK1, single-point, at 10 μM, read-out: percent inhibition), 81%; at BMX (setting [6]), 80%; at BMX (setting [7]), 80%. The inhibition at 10 µM is 83% in [4] (setting [6]); 83% in assay [4] (setting [7]); 81% at AMPK A2/B1/G1 (AMPK A2/B1/G1, at 10 μM, read-out: Inhibition (IC50 at 10 μM)); 81% on AMPK A2/B1/G1 (AMPK A2/B1/G1, single-point, at 10 μM, read-out: percent inhibition); 71% on TXK (TXK1, at 10 μM, read-out: Inhibition (IC50 at 10 μM)); 71% at TXK (TXK, single-point, at 10 μM, read-out: percent inhibition). The inhibition at 10 µM at NUAK2 (NUAK2, at 10 μM, read-out: Inhibition (IC50 at 10 μM)) is 76%; at NUAK2 (NUAK2, single-point, at 10 μM, read-out: percent inhibition), 76%.
Consider `C[C@@H]1OC(=O)C2=C[C@@H](O)[C@@H](/C=C/CO)O[C@@H]21` [Compound 19, Hydroxy-TAN-2483B], for which the IC50 in [3] (Homo sapiens, 48 h) amounted to 42 µM.
Take “(−)-TAN-2483B E-ethyl ester [Compound 14]”: the IC50 turned out to be 2.2 µM in assay [3] and 3.4 µM in assay [5].

These data come from patent US9956198B2, “Furo[3,4-b]pyran compounds and pharmaceutical uses” (Victoria Link Limited, priority 2013, dated 2018).
